According to the supplement of paper PMC10307832:

Columns and labels:
Assay in all cases: relative viability (nuclei count vs DMSO), 5 days (fraction); higher = more cells survive
kb NB 142-70 + Lapatinib = compound: C1CSC2=C(C(=O)N1)SC3=C2C=C(C=C3)O [kb NB 142-70] + CS(=O)(=O)CCNCc1ccc(-c2ccc3ncnc(Nc4ccc(OCc5cccc(F)c5)c(Cl)c4)c3c2)o1 [Lapatinib] (partner 2 µM)
In short: (§1)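 Lung cancer cell lines were seeded in 1536-well plates and dosed by pin tool the next day, with either a single drug or a fixed anchor-drug dose combined with five library-drug doses (not always all listed) spaced in √10 steps. Five days later, one step fixed the cells and stained their nuclei (final 0.05% Triton X-100, 1% formaldehyde, 1 ug/ml Hoechst), and nuclei were counted on 4× images. Relative viability is the nuclei count in treated wells divided by the count in vehicle wells, and each value is the median of duplicate plates.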

kb NB 142-70 + Alpelisib = compound: C1CSC2=C(C(=O)N1)SC3=C2C=C(C=C3)O [kb NB 142-70] + Cc1nc(NC(=O)N2CCC[C@H]2C(N)=O)sc1-c1ccnc(C(C)(C)C(F)(F)F)c1 [Alpelisib] (partner 2 µM)
In short: as §1

kb NB 142-70 + Dasatinib = compound: C1CSC2=C(C(=O)N1)SC3=C2C=C(C=C3)O [kb NB 142-70] + Cc1nc(Nc2ncc(C(=O)Nc3c(C)cccc3Cl)s2)cc(N2CCN(CCO)CC2)n1 [Dasatinib] (partner 0.075 µM)
In short: as §1

[1] = compound: NCC(=O)Nc1ccc(-n2nc(C(F)(F)F)cc2-c2ccc3c(ccc4ccccc43)c2)cc1 + N=C(N)NC(=N)NCCc1ccccc1 [Phenformin] (partner 250 µM)
In short: as §1

[2] = compound: NCC(=O)Nc1ccc(-n2nc(C(F)(F)F)cc2-c2ccc3c(ccc4ccccc43)c2)cc1 + O=C(c1cc(Cc2n[nH]c(=O)c3ccccc23)ccc1F)N1CCN(C(=O)C2CC2)CC1 [Olaparib] (partner 8 µM)
In short: as §1

Cell Line | relative viability (kb NB 142-70 + Lapatinib; first compound 0.1 µM) | relative viability (kb NB 142-70 + Lapatinib; first compound 1 µM) | relative viability (kb NB 142-70 + Lapatinib; first compound 3.162 µM) | relative viability (kb NB 142-70 + Alpelisib; first compound 0.1 µM) | relative viability (kb NB 142-70 + Alpelisib; first compound 1 µM) | relative viability (kb NB 142-70 + Alpelisib; first compound 3.162 µM) | relative viability (kb NB 142-70 + Dasatinib; first compound 0.1 µM) | relative viability (kb NB 142-70 + Dasatinib; first compound 1 µM) | relative viability (kb NB 142-70 + Dasatinib; first compound 3.162 µM) | relative viability ([1]; first compound 0.02 µM) | relative viability ([1]; first compound 0.06325 µM) | relative viability ([1]; first compound 0.2 µM) | relative viability ([1]; first compound 0.6325 µM) | relative viability ([1]; first compound 2 µM) | relative viability ([2]; first compound 0.02 µM) | relative viability ([2]; first compound 0.06325 µM) | relative viability ([2]; first compound 0.2 µM) | relative viability ([2]; first compound 0.6325 µM) | relative viability ([2]; first compound 2 µM)
NCI-H1975 | 0.894 | 0.881 | 0.433 | 0.665 | 0.604 | 0.344 | 0.395 | 0.421 | 0.364 | 0.392 | 0.375 | 0.439 | 0.424 | 0.422 | 0.763 | 0.847 | 0.887 | 0.744 | 0.873
NCI-H1993 | 0.71 | 0.765 | 0.856 | 0.761 | 0.654 | 0.555 | 0.626 | 0.478 | 0.531 | 0.453 | 0.438 | 0.515 | 0.493 | 0.5 | 1.01 | 1.01 | 1.06 | 0.915 | 1.08
NCI-H2009 | 0.952 | 1.03 | 0.678 | 1.04 | 1.2 | 0.72 | 0.321 | 0.284 | 0.155 | 0.459 | 0.503 | 0.482 | 0.479 | 0.525 | 0.681 | 0.72 | 0.75 | 0.657 | 0.679
NCI-H2023 | 0.809 | 0.758 | 0.486 | 0.619 | 0.602 | 0.531 | 0.51 | 0.536 | 0.5 | 0.414 | 0.441 | 0.403 | 0.454 | 0.412 | 0.604 | 0.543 | 0.516 | 0.401 | 0.464
NCI-H2085 | 0.764 | 0.727 | 0.48 | 0.869 | 0.901 | 0.658 | 0.252 | 0.198 | 0.274 | 0.689 | 0.786 | 0.652 | 0.702 | 0.72 | 0.853 | 0.802 | 0.801 | 0.829 | 0.812
NCI-H2087 | 0.935 | 1.22 | 0.897 | 1.16 | 1.22 | 0.858 | 0.907 | 1.04 | 0.608 | 0.455 | 0.583 | 0.441 | 0.48 | 0.47 | 0.583 | 0.525 | 0.592 | 0.67 | 0.634
NCI-H2126 | 0.818 | 0.739 | 0.783 | 0.748 | 0.763 | 0.758 | 0.622 | 0.558 | 0.537 | 0.515 | 0.559 | 0.5 | 0.518 | 0.539 | 0.864 | 0.877 | 0.925 | 0.928 | 0.913
NCI-H2170 | 0.295 | 0.305 | 0.258 | 0.76 | 0.852 | 0.561 | 0.498 | 0.475 | 0.4 | 0.397 | 0.446 | 0.429 | 0.438 | 0.457 | 0.689 | 0.638 | 0.62 | 0.673 | 0.605
NCI-H2228 | 1.07 | 1.02 | 0.323 | 0.7 | 0.729 | 0.494 | 0.568 | 0.542 | 0.405 | 0.432 | 0.484 | 0.352 | 0.266 | 0.31 | 0.354 | 0.641 | 0.827 | 0.52 | 0.633
NCI-H2347 | 1.02 | 1.07 | 0.936 | 0.963 | 1.09 | 1.01 | 0.311 | 0.349 | 0.279 | 0.51 | 0.394 | 0.547 | 0.386 | 0.281 | 0.572 | 0.611 | 0.648 | 0.63 | 0.521
NCI-H2405 | 1.11 | 1.07 | 0.896 | 0.743 | 0.802 | 0.723 | 0.205 | 0.208 | 0.224 | 0.402 | 0.399 | 0.416 | 0.38 | 0.475 | 0.873 | 0.89 | 0.863 | 0.857 | 0.919
NCI-H3122 | 0.872 | 1.01 | 0.947 | 0.828 | 0.7 | 0.442 | 0.803 | 0.794 | 0.84 | 0.37 | 0.432 | 0.364 | 0.386 | 0.377 | 0.675 | 0.637 | 0.633 | 0.693 | 0.558
PC-3 [JPC-3] | 0.452 | 0.481 | 0.433 | 1.06 | 1.04 | 0.968 | 0.94 | 1.05 | 1.02 | 0.497 | 0.486 | 0.439 | 0.485 | 0.492 | 1.19 | 1.2 | 1.22 | 1.08 | 1.18
PC-14 | 0.362 | 0.304 | 0.341 | 0.902 | 0.969 | 0.99 | 0.299 | 0.239 | 0.224 | 0.553 | 0.64 | 0.543 | 0.57 | 0.642 | 0.308 | 0.45 | 0.317 | 0.388 | 0.306
RERF-LC-KJ | 0.956 | 0.88 | 0.942 | 0.778 | 0.827 | 0.706 | 0.834 | 0.872 | 0.752 | 0.41 | 0.458 | 0.412 | 0.409 | 0.403 | 0.98 | 0.97 | 1.01 | 0.985 | 0.897
SK-LU-1 | 0.865 | 0.802 | 0.527 | 0.961 | 0.873 | 0.307 | 0.176 | 0.163 | 0.119 | 0.514 | 0.584 | 0.617 | 0.502 | 0.55 | 0.477 | 0.463 | 0.589 | 0.479 | 0.556
SK-MES-1 | 0.448 | 0.503 | 0.541 | 0.932 | 0.922 | 0.833 | 0.422 | 0.49 | 0.337 | 0.707 | 0.705 | 0.662 | 0.666 | 0.704 | 0.773 | 0.727 | 0.84 | 0.775 | 0.706
SW 1573 | 1.03 | 0.877 | 0.988 | 0.86 | 0.549 | 0.529 | 0.491 | 0.458 | 0.188 | 0.394 | 0.356 | 0.383 | 0.401 | 0.366 | 0.554 | 0.506 | 0.531 | 0.479 | 0.404
